Laboratory results as given in patent publication US20240343694A1, “PYRIMIDINE DERIVATIVE, METHOD FOR PREPARING SAME, AND PHARMACEUTICAL COMPOSITION FOR PREVENTING OR TREATING CANCER COMPRISING SAME AS ACTIVE INGREDIENT” (KOREA RESERARCH INSTITUTE OF CHEMICAL TECHNOLOGY, priority 2021, published 2024).

Experiments:
[1] = tested on: Ba/F3 HER2 A775_G776insYVMA; assay: Growth inhibition of Ba/F3 HER2 mutant cells (CellTiter-Glo); format: cell-based; conditions: Mus musculus, BaF3, 72 hours
Experimental: The activity of the compounds of the present invention against Ba/F3 HER2 A775_G776insYVMA and Ba/F3 HER2 G776delinsVC mutant cell lines was measured using the CellTiter-Glo system purchased from Promega as follows. CellTiter-Glo assay is a method to measure cell viability by monitoring ATP present in cells. Ba/F3 HER2 A775_G776insYVMA and Ba/F3 HER2 G776delinsVC mutant cell lines were purchased from Crown Biosciences. Ba/F3 HER2 A775_G776insYVMA and Ba/F3 HER2 G776delinsVC mutant cell lines were cultured in RPMI containing 10% FBS and 1% penicillin-streptomycin with 1 μg/mL of puromycin in a CO2 incubator at 37° C.
The analysis of the ability of the compounds to inhibit the growth of HER2 mutant cells was performed according to the following method. 1,000 cells/100 μL were seeded in a 96-well cell culture plate, and 24 hours thereafter, the compounds represented by Formula 1 were treated with 0 μM, 0.01 μM, 0.03 μM, 0.1 μM, 0.3 μM, 1 μM, 3 μM, and 10 μM. After reacting for 72 hours, the plate treated with the compounds were left at room temperature for 30 minutes, 100 μL of a reagent was added thereto, and then shaken at room temperature for 10 minutes. Finally, using equipment, the ratio of […] was measured to confirm the cell growth inhibition ability of the compounds. The measured values at 8 compound concentrations were analyzed using the Prism program (version 5.01, Graphpad Software, Inc.), and the IC50 (μM) values, which are measures of the compounds' inhibitory ability, were calculated.

HER2 A775_G776insYVMA = HER2 A775_G776insYVMA (Homo sapiens (Human), UniProt P04626, INS775YVMA); assay: HTRF inhibitory activity against HER2 mutant enzyme; format: biochemical; conditions: recombinant enzyme, 37° C. for 2 hours
HER2 A775_G776insYVMA, sequence (P04626 other isoform, or with tags, fused parts or gaps del 1-675/ins YVMA behind 775 limits assumed): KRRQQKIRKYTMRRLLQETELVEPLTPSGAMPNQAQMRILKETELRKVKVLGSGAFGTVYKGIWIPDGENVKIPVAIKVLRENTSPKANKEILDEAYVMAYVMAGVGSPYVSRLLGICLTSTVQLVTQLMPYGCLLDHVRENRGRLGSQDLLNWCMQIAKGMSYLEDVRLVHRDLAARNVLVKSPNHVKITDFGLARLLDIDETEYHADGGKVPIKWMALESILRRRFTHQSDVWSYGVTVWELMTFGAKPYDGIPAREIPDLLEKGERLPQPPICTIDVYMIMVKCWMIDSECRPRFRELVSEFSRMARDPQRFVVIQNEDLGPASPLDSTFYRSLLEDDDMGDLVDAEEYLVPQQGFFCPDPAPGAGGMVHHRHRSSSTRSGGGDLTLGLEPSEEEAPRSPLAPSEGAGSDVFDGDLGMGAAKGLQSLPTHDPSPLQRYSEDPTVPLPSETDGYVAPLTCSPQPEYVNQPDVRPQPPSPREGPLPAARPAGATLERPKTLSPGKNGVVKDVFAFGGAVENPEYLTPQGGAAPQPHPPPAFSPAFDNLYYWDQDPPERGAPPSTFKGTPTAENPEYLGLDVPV
Experimental: The activity of the compounds of the present invention against HER mutant enzymes was measured using the HTRF system purchased by Cisbio as follows. As a HER2 mutant enzyme, the HER2 A775_G776insYVMA mutant enzyme was used by purchasing a recombinant protein provided by Carna Biosciences.
(§1) The composition of the assay buffer used for activity measurement was 50 mM tris-HCl pH 7.5, 100 mM NaCl, 7.5 mM MgCl2, 3 mM KCl, 0.01% tween 20, 0.1% BSA, and 1 mM DTT. In addition thereto, the enzymatic reaction was performed using a peptide substrate labeled with ATP at a concentration of […] and biotin at a concentration of […]. The analysis of the activity inhibitory effect of the compounds on HER2 A775_G776insYVMA mutation was performed according to the following method. • Component 1:4 μL of HER2 A775_G776insYVMA mutant enzyme • Component 2:2 μL of compound solution • Component 3:4 μL of ATP and a biotin labeled peptide
The enzyme reaction begins by first mixing component 1 and component 2 and then adding component 3 thereto. After the reaction at 37° C. for 2 hours, […] of a measurement solution consisting of streptavidin-XL665 and a europium-labeled anti-phosphotyrosine antibody purchased from Cisbio was added to the enzyme reaction solution and reacted at room temperature for 1 hour. […] The measured values at 7 compound concentrations were analyzed using the Prism program (version 5.01, Graphpad Software, Inc.), and the IC50 (μM) values, which are measures of the compounds' inhibitory ability, were calculated.

EGFR A763_Y764insFHEA = EGFR A763_Y764insFHEA (Homo sapiens (Human), UniProt P00533, INS763FHEA); assay: HTRF inhibitory activity against EGFR mutant enzyme (EGFR A763_Y764insFHEA); format: biochemical; conditions: recombinant enzyme, 37° C. for 2 hours
EGFR A763_Y764insFHEA, sequence (P00533 other isoform, or with tags, fused parts or gaps del 1-694/ins FHEA behind 763 limits assumed): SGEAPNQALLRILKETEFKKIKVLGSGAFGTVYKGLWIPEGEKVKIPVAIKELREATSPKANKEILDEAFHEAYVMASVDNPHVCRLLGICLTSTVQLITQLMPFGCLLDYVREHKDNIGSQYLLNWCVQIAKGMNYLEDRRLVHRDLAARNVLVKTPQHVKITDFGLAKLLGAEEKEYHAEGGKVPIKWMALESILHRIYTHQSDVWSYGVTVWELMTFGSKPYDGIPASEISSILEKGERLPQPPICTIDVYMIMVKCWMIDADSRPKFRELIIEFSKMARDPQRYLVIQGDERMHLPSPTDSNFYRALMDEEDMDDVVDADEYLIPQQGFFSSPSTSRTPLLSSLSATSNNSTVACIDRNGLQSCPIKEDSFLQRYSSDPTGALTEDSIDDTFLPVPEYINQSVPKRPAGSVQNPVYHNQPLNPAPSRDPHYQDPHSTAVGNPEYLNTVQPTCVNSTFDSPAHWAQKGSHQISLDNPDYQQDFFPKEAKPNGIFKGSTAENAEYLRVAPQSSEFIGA
Experimental: (§2) The activity of the compounds of the present invention against EGFR mutant enzymes was measured using the HTRF system purchased from Cisbio as follows. For an EGFR mutant enzyme, the EGFR del19 enzyme was a recombinant protein purchased from Carna Biosciences, and the EGFR A763_Y764insFHEA enzyme was a recombinant protein purchased from SignalChem, respectively.
as §1, with “An” for “In addition thereto, the”, “the” for “the activity”, “EGFR activity” for “HER2 A775_G776insYVMA mutation”, “EGFR” for “HER2 A775_G776insYVMA”
(§3) The enzyme reaction begins by first mixing component 1 and component 2 and then adding component 3 thereto. After the reaction at 37° C. for 2 hours, […] of a measurement solution consisting of streptavidin-XL665 and a europium-labeled anti-phosphotyrosine antibody purchased from Cisbio was added to the enzyme reaction solution and reacted at room temperature for 1 hour. Finally, the ratio of fluorescence values at 615 nm and 665 nm was measured using Perkin-Elmer's Envision instrument to calculate enzyme activity and confirm the inhibitory ability of the compounds. The measured values at 7 compound concentrations were analyzed using the Prism program (version 5.01, Graphpad Software, Inc.), and the IC50 (μM) values, which are measures of the compounds' inhibitory activity, were calculated.

EGFR del19 = EGFR del19 (Homo sapiens (Human), UniProt P00533, DEL746-750); assay: HTRF inhibitory activity against EGFR mutant enzyme (EGFR del19); format: biochemical; conditions: recombinant enzyme, 37° C. for 2 hours
EGFR del19, sequence (P00533 other isoform, or with tags, fused parts or gaps del 1-668/del 746-750 limits assumed): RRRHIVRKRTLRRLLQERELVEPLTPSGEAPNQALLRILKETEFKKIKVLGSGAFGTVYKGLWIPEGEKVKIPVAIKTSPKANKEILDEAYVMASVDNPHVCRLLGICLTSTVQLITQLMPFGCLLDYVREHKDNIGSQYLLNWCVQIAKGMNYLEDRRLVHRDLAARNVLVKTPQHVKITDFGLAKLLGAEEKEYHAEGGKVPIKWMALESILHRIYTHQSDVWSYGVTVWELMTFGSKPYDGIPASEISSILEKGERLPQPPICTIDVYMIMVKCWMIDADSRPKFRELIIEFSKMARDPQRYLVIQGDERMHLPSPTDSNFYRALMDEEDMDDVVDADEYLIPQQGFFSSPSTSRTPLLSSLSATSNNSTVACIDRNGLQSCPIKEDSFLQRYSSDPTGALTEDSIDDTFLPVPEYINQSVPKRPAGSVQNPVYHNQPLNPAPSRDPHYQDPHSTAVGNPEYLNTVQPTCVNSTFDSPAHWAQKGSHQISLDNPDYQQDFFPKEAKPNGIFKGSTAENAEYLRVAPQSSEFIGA
Experimental: as §2
as §1, with “An” for “In addition thereto, the”, “the” for “the activity”, “EGFR activity” for “HER2 A775_G776insYVMA mutation”, “EGFR” for “HER2 A775_G776insYVMA”
as §3

IC50 [1] [nM]	IC50 (HER2 A775_G776insYVMA) [nM]	IC50 (EGFR A763_Y764insFHEA) [nM]	IC50 (EGFR del19) [nM]	Structure (SMILES)
–	5	< 1	< 1	C=CC(=O)Nc1cc(Nc2ncc(Cl)c(Nc3cccc4c3N(S(C)(=O)=O)CC4)n2)c(OC)cc1N(C)CCN1CCN(C)CC1 [Example 73, N-(5-((5-chloro-4-((1-(methylsulfonyl)indolin-7-yl)amino)pyrimidin-2-yl)amino)-4-methoxy-2-(methyl(2-(4-methylpiperazin-1-yl)ethyl)amino)phenyl)acrylamide]
–	3	< 1	< 1	C=CC(=O)Nc1cc(Nc2ncc(Cl)c(Nc3cccc4c3N(S(=O)(=O)CC)CC4)n2)c(OC)cc1N(C)CCN1CCCC1 [Example 75, N-(5-((5-chloro-4-((1-(ethylsulfonyl)indolin-7-yl)amino)pyrimidin-2-yl)amino)-4-methoxy-2-(methyl(2-(pyrrolidin-1-yl)ethyl)amino)phenyl)acrylamide]
–	2	< 1	< 1	C=CC(=O)Nc1cc(Nc2ncc(Cl)c(Nc3cccc4c3N(S(C)(=O)=O)CC4)n2)c(OC)cc1OCCN1CCOCC1 [Example 77, N-(5-((5-chloro-4-((1-(methylsulfonyl)indolin-7-yl)amino)pyrimidin-2-yl)amino)-4-methoxy-2-(2-morpholinoethoxy)phenyl)acrylamide]
–	3	< 1	< 1	C=CC(=O)Nc1cc(Nc2ncc(Cl)c(Nc3cccc4c3N(S(C)(=O)=O)CC4)n2)c(OC)cc1OCCN1CCCCC1 [Example 78, N-(5-((5-chloro-4-((1-(methylsulfonyl)indolin-7-yl)amino)pyrimidin-2-yl)amino)-4-methoxy-2-(2-(piperidin-1-yl)ethoxy)phenyl)acrylamide]
–	< 1	< 1	< 1	C=CC(=O)Nc1cc(Nc2ncc(Cl)c(Nc3cccc4c3N(S(=O)(=O)CC)CC4)n2)c(OC)cc1N(C)CCN1CCC1 [Example 81, N-(2-((2-(azetidin-1-yl)ethyl)(methyl)amino)-5-((5-chloro-4-((1-(ethylsulfonyl)indolin-7-yl)amino)pyrimidin-2-yl)amino)-4-methoxyphenyl)acrylamide]

Second part, the compound before the results:

Structure (SMILES)	IC50 [1] [nM]	IC50 (HER2 A775_G776insYVMA) [nM]	IC50 (EGFR A763_Y764insFHEA) [nM]	IC50 (EGFR del19) [nM]
C=CC(=O)Nc1cc(Nc2ncc(Cl)c(Nc3ccccc3NS(=O)(=O)CCC)n2)c(OC)cc1N(C)CCN(C)C [Example 1, N-(5-((5-chloro-4-((2-(propylsulfonamido)phenyl)amino)pyrimidin-2-yl)amino)-2-((2-(dimethylamino)ethyl)(methyl)amino)-4-methoxyphenyl)acrylamide]	30 to 50	140	4	< 1
C=CC(=O)Nc1cc(Nc2ncc(C(=O)OC)c(Nc3cccc4c3N(S(C)(=O)=O)CCC4)n2)c(OC)cc1N(C)CCN(C)C [Example 51, methyl 2-((5-acrylamido-4-((2-(dimethylamino)ethyl)(methyl)amino)-2-methoxyphenyl)amino)-4-((1-(methylsulfonyl)-1,2,3,4-tetrahydroquinolin-8-yl)amino)pyrimidin-5-carboxylate]	–	30	< 1	< 1
C=CC(=O)Nc1cc(Nc2ncc(C(=O)OC(C)C)c(Nc3cccc4c3N(S(C)(=O)=O)CCC4)n2)c(OC)cc1N(C)CCN(C)C [Example 52, isopropyl 2-((5-acrylamido-4-((2-(dimethylamino)ethyl)(methyl)amino)-2-methoxyphenyl)amino)-4-((1-(methylsulfonyl)-1,2,3,4-tetrahydroquinolin-8-yl)amino)pyrimidin-5-carboxylate]	–	4	< 1	< 1
C=C(F)C(=O)Nc1cc(Nc2ncc(Cl)c(Nc3cccc4c3N(S(C)(=O)=O)CCC4)n2)c(OC)cc1N(C)CCN(C)C [Example 54, N-(5-((5-chloro-4-((1-(methylsulfonyl)-1,2,3,4-tetrahydroquinolin-8-yl)amino)pyrimidin-2-yl)amino)-2-((2-(dimethylamino)ethyl)(methyl)amino)-4-methoxyphenyl)-2-fluoroacrylamide]	–	10	< 1	< 1
C=CC(=O)Nc1cc(Nc2ncc(C(=O)OC)c(Nc3cccc4c3N(S(C)(=O)=O)CC4)n2)c(OC)cc1N(C)CCN(C)C [Example 60, methyl 2-((5-acrylamido-4-((2-(dimethylamino)ethyl)(methyl)amino)-2-methoxyphenyl)amino)-4-((1-(methylsulfonyl)indolin-7-yl)amino)pyrimidin-5-carboxylate]	–	10	< 1	< 1
C=CC(=O)Nc1cc(Nc2ncc(Cl)c(Nc3cccc4ccn(S(C)(=O)=O)c34)n2)c(OC)cc1N(C)CCN(C)C [Example 67, N-(5-((5-chloro-4-((1-(methylsulfonyl)-1H-indol-7-yl)amino)pyrimidin-2-yl)amino)-2-((2-(dimethylamino)ethyl)(methyl)amino)-4-methoxyphenyl)acrylamide]	–	81	< 1	< 1
C=CC(=O)Nc1cc(Nc2ncc(Cl)c(Nc3ccc4nccnc4c3N(C)S(C)(=O)=O)n2)c(OC)cc1N(C)CCN(C)C [Example 68, N-(5-((5-chloro-4-((5-(N-methylmethylsulfonamido)quinoxalin-6-yl)amino)pyrimidin-2-yl)amino)-2-((2-(dimethylamino)ethyl)(methyl)amino)-4-methoxyphenyl)acrylamide]	–	6	< 1	< 1
C=CC(=O)Nc1cc(Nc2ncc(Cl)c(Nc3ccc4nccnc4c3NS(C)(=O)=O)n2)c(OC)cc1N(C)CCN(C)C [Example 69]	–	6	< 1	< 1
C=CC(=O)Nc1cc(Nc2ncc(Cl)c(Nc3ccccc3N3CCCS3(=O)=O)n2)c(OC)cc1N(C)CCN(C)C [Example 70, N-(5-((5-chloro-4-((2-(1,1-dioxidoisothiazolidin-2-yl)phenyl)amino)pyrimidin-2-yl)amino)-2-((2-(dimethylamino)ethyl)(methyl)amino)-4-methoxyphenyl)acrylamide]	–	33	4	< 1
C=CC(=O)Nc1cc(Nc2ncc(Cl)c(Nc3ccccc3N3CCCCS3(=O)=O)n2)c(OC)cc1N(C)CCN(C)C [Example 71, N-(5-((5-chloro-4-((2-(1,1-dioxido-1,2-thiazinan-2-yl)phenyl)amino)pyrimidin-2-yl)amino)-2-((2-(dimethylamino)ethyl)(methyl)amino)-4-methoxyphenyl)acrylamide]	–	61	5	< 1
